This note sets out measurements from the supplement of paper PMC7661543.

± gives the standard deviation of the averaged measurements.

Common to all, as to assay: relative cell number vs DMSO control (72 h) (% of DMSO); higher = less growth inhibition (more cells)
What all share (conditions): sgRNA knockout: sgNT

One assay relates to HCC-38. As for the experimental part: (§1)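 QMAP-Seq: a pool of 5 breast cancer cell lines (ZR-75-1, SKBR3, HCC-38, MDA-MB-231, BT-20), each carrying 12 doxycycline-inducible Cas9 sgRNA perturbations (11 knockouts plus non-targeting sgNT), was treated with compounds for 72 h at four 10-fold doses (10 nM-10 uM or 1 nM-1 uM range). Barcodes were amplified and sequenced, and cell number was interpolated from 293T spike-in standard curves. The result is expressed as % of the median of DMSO wells. Two biological replicates.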

A further assay has as its system SKBR3. As for the experimental part: as §1
The next assay relates to ZR-75-1. As for the experimental part:
as §1

A further assay deals with MDA-MB-231. As for the experimental part: as §1
The next assay deals with BT-20. As for the experimental part: as §1

Consider `CCCc1nn(C)c2c(=O)[nH]c(-c3cc(S(=O)(=O)N4CCN(C)CC4)ccc3OCC)nc12` [Sildenafil], for which the relative cell number in the assay with HCC-38 (10 nM) was found to be 89.5 ± 15; with HCC-38 (100 nM), 92.7 ± 4.1; in the assay with HCC-38 (1000 nM), 103 ± 9.7; with HCC-38 (10000 nM) it was 124 ± 18; with SKBR3 (10 nM), 82.23 ± 0.8; in the assay on SKBR3 (100 nM), 91.7 ± 25. In addition, the relative cell number came out at 62.7 ± 0.37 with SKBR3 (1000 nM); 68.1 ± 16 in the assay with SKBR3 (10000 nM); 105 ± 9.5 with ZR-75-1 (10 nM); 117 ± 58 in the assay on ZR-75-1 (100 nM); 86.3 ± 26 with ZR-75-1 (1000 nM); 57.6 ± 2.1 in the assay on ZR-75-1 (10000 nM). Further, the relative cell number with MDA-MB-231 (10 nM) is 114 ± 8.2; in the assay with MDA-MB-231 (100 nM), 85 ± 15; in the assay on MDA-MB-231 (1000 nM) it was 97.7 ± 22; in the assay on MDA-MB-231 (10000 nM), 57.1 ± 8.9; in the assay with BT-20 (10 nM), 95.7 ± 16; in the assay on BT-20 (100 nM), 110 ± 2.7. The relative cell number in the assay with BT-20 (1000 nM) came to 95.2 ± 0.97; with BT-20 (10000 nM) it was 107 ± 3.9.
Take `CCC(C)(C)C(=O)O[C@H]1C[C@@H](C)C=C2C=C[C@H](C)[C@H](CC[C@@H]3C[C@@H](O)CC(=O)O3)[C@H]21` [Simvastatin]: the relative cell number in the assay with HCC-38 (10 nM) stood at 90.5 ± 2.1; in the assay with HCC-38 (100 nM) it was 96 ± 21; in the assay with HCC-38 (1000 nM) it was 103 ± 12; in the assay with HCC-38 (10000 nM), 87.5 ± 13; in the assay on SKBR3 (10 nM) it was 95.7 ± 4.9; in the assay on SKBR3 (100 nM), 60.8 ± 3.1. The relative cell number amounted to 113 ± 23 in the assay on SKBR3 (1000 nM); 66.7 ± 15 in the assay with SKBR3 (10000 nM); 95.6 ± 57 with ZR-75-1 (10 nM); 75.2 ± 6 in the assay with ZR-75-1 (100 nM); 109 ± 39 in the assay on ZR-75-1 (1000 nM); 75.6 ± 20 in the assay with ZR-75-1 (10000 nM). Also, the relative cell number is 130 ± 20 in the assay with MDA-MB-231 (10 nM); 115 ± 28 with MDA-MB-231 (100 nM); 82.6 ± 8.9 with MDA-MB-231 (1000 nM); 34.2 ± 13 in the assay on MDA-MB-231 (10000 nM); 108 ± 18 in the assay with BT-20 (10 nM); 72.5 ± 13 in the assay on BT-20 (100 nM). Besides, the relative cell number came to 89.7 ± 26 in the assay with BT-20 (1000 nM) and 91.4 ± 19 in the assay on BT-20 (10000 nM).
`N[C@@H](CC(=O)N1CCn2c(nnc2C(F)(F)F)C1)Cc1cc(F)c(F)cc1F` [Sitagliptin]: the relative cell number in the assay on HCC-38 (10 nM) was 106 ± 10; in the assay with HCC-38 (100 nM) it was 99.2 ± 12; with HCC-38 (1000 nM), 106 ± 5; in the assay with HCC-38 (10000 nM), 92.2 ± 1.9; with SKBR3 (10 nM), 87.3 ± 2.4; with SKBR3 (100 nM) it was 89.5 ± 3.5. Besides, the relative cell number in the assay with SKBR3 (1000 nM) was 82.6 ± 2.9; in the assay on SKBR3 (10000 nM) it was 89.8 ± 3.9; in the assay with ZR-75-1 (10 nM) it was 118 ± 6.4; in the assay with ZR-75-1 (100 nM), 84.6 ± 64; in the assay with ZR-75-1 (1000 nM), 124 ± 34; with ZR-75-1 (10000 nM) it was 96.5 ± 5.2. Also, the relative cell number amounted to 114 ± 63 in the assay with MDA-MB-231 (10 nM); 86.6 ± 14 in the assay on MDA-MB-231 (100 nM); 113 ± 32 in the assay on MDA-MB-231 (1000 nM); 120 ± 77 with MDA-MB-231 (10000 nM); 107 ± 24 in the assay with BT-20 (10 nM); 90.6 ± 5.2 in the assay on BT-20 (100 nM). In addition, the relative cell number worked out at 74.2 ± 14 with BT-20 (1000 nM) and 123 ± 24 with BT-20 (10000 nM).
Turning to `CNC(=O)c1cc(Oc2ccc(NC(=O)Nc3ccc(Cl)c(C(F)(F)F)c3)cc2)ccn1` [Sorafenib], the relative cell number with HCC-38 (10 nM) was found to be 97.1 ± 9.2; with HCC-38 (100 nM) it was 133 ± 45; with HCC-38 (1000 nM), 124 ± 8.8; with HCC-38 (10000 nM) it was 54.6 ± 2.4; with SKBR3 (10 nM) it was 102 ± 4.4; in the assay on SKBR3 (100 nM) it was 97.1 ± 4.3. Also, the relative cell number with SKBR3 (1000 nM) stood at 106 ± 2.8; with SKBR3 (10000 nM), 47.8 ± 11; with ZR-75-1 (10 nM), 70.2 ± 11; in the assay on ZR-75-1 (100 nM), 104 ± 2.9; in the assay with ZR-75-1 (1000 nM), 87.4 ± 19; in the assay on ZR-75-1 (10000 nM), 41.7 ± 17. The relative cell number was determined as 86.7 ± 5 with MDA-MB-231 (10 nM); 93 ± 8.3 in the assay with MDA-MB-231 (100 nM); 90.7 ± 10 in the assay on MDA-MB-231 (1000 nM); 41.1 ± 4.4 in the assay on MDA-MB-231 (10000 nM); 116 ± 3.8 in the assay with BT-20 (10 nM); 100 ± 13 in the assay with BT-20 (100 nM). Moreover, the values for the relative cell number in the assay on BT-20 (1000 nM) and in the assay on BT-20 (10000 nM) were 108 ± 36 and 50.8 ± 8.9, respectively.
For the compound `Fc1ccc(CNc2ncnc3ccc(F)cc23)cc1` [Spautin1], the relative cell number is 104 ± 8 with HCC-38 (10 nM); 99.2 ± 11 in the assay on HCC-38 (100 nM); 111 ± 3.9 in the assay on HCC-38 (1000 nM); 106 ± 1.6 in the assay with HCC-38 (10000 nM); 87.9 ± 40 in the assay with SKBR3 (10 nM); 85.3 ± 0.86 with SKBR3 (100 nM). The relative cell number is 87.4 ± 8.4 in the assay with SKBR3 (1000 nM); 92 ± 23 in the assay on SKBR3 (10000 nM); 55.6 ± 14 in the assay with ZR-75-1 (10 nM); 70.6 ± 3.6 in the assay on ZR-75-1 (100 nM); 94.4 ± 13 with ZR-75-1 (1000 nM); 49.3 ± 9.3 in the assay on ZR-75-1 (10000 nM). Also, the relative cell number with MDA-MB-231 (10 nM) was found to be 124 ± 29; with MDA-MB-231 (100 nM) it was 97 ± 34; in the assay with MDA-MB-231 (1000 nM), 77.7 ± 26; with MDA-MB-231 (10000 nM) it was 74.8 ± 8; in the assay with BT-20 (10 nM), 96.8 ± 34; in the assay with BT-20 (100 nM), 86 ± 36. Besides, the relative cell number with BT-20 (1000 nM) stood at 89.8 ± 13; in the assay with BT-20 (10000 nM) it was 88.6 ± 19.
